Source: article PMC12703741, “Light-Activated Metal-Dependent Protein Degradation: A Heterobifunctional Ruthenium(II) Photosensitizer Targeting New Delhi Metallo-β-lactamase 1” (Journal of the American Chemical Society, 2025)
“And” between values parts separate entries of the source, which are not always exact repeats. Identical values can stand only once. “Also recorded” adds a separate entry of the source. Like-named read-outs stand apart in the source and are kept apart here.

How the values were obtained:
[1] = target: T1, NDM-1 (Klebsiella pneumoniae, UniProt C7C422); assay type: biochemical; settings: mixture of NDM-1 and BSA, 0-1000 μM
T1 sequence (C7C422 31-270 limits assumed): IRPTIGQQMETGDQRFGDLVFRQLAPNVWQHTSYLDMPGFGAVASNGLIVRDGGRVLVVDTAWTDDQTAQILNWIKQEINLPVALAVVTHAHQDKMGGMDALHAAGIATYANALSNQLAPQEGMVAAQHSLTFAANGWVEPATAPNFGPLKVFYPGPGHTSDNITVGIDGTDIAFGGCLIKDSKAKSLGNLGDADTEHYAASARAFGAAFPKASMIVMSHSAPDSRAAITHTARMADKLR
Method: 1.8 Protein degradation via SDS-PAGE […]
were made at 10 mM in DMSO and then diluted to the appropriate concentration (1 mM – 10 µM) in 50 mM HEPES pH 7.5. The enzyme stocks (10 µM) were made up in 50 mM HEPES pH 7.5. The compound and enzyme stocks were mixed 1:1 and then pre -incubated for 10 min […]
‘light’ conditions the samples were transferred to a 96 well plate to provide irradiation. For a […]
(208 s, 96 mW cm-2). For a dose of 60 J cm-2 the plate was irradiated immediately (624 s, 96 […]
An aliquot of each sample was mixed with SDS-sample buffer (NuPAGE® LDS Sample buffer 4x) and heated to 95°C for 3 min. The samples were loaded on to the gel (NuPAGE® 4-12% Bis-tris gel) and run at 200V/125 mA for 30 min (1 gel per Gel box) or 60 min (2 gels per Gel box). SDS-PAGE gels were imaged using a Cytiva Amersham ImageQuant™ 800.
Densitometry of gel bands was measured and processed using Fiji (ImageJ).
1.8.3 BSA+NDM-1 selectivity experiment […]
nm, 20 J cm-2). Lane 1: Ladder; Lane 2: NDM-1 – no compound control (dark); Lane 3: BSA – no compound control (dark); Lane 4: NDM-1 + BSA - no compound control (dark); Lane 5: NDM-1 + BSA + 1 eq. compound (dark); Lane 6: NDM-1 + BSA + 10 eq. compound (dark); Lane 7: NDM-1 + BSA + 100 eq. compound (dark); Lane 8: NDM-1 + BSA - no compound control (light); Lane 9: NDM-1 + BSA + 1 eq. compound (light); Lane 10: NDM-1 + BSA + 10 eq. compound (light); Lane 11: NDM-1 + BSA + 100 eq. compound (light). […]
the dark (left) and under light irradiation (450 nm, 20 J cm-2).

[2] = target: T1, NDM-1; settings: for Effect on melting temperature of NDM-1: in words
Method: (§12) 1.4.1 Differential Scanning Fluorimetry (DSF)
(§13) DSF was performed using the Applied Biosystems QuantStudio 5 thermal cycler (Thermo
(§14) Fisher Scientific). Results were analysed and Tm determined with the Applied Biosystems
(§15) Protein Thermal Shift Software v1.4 and Tm values determined by the software. DSF was
(§16) conducted in sealed MicroAmp Optical 384-Well Reaction Plates (Thermo Fisher Scientific).
(§17) at a temperature ramp rate of 0.03 °C/s. For compound-protein interaction studies, a final
(§18) containing 5X SYPRO Orange (Thermo Fisher Scientific), 50 mM HEPES and 5%(v/v)
(§19) DMSO-d6. The final reaction volume was 20 µL per well. All DMSO compound stocks used
(§20) for DSF experiments were freshly prepared from solid stocks. All DSF measurements were
(§21) carried out in triplicate and the Tm reported is the mean value and the error is the standard
(§22) deviation. For all compounds tested, a no protein control run was included to see potential
(§23) changes in fluorescence resulting from a compound-dye interaction.

[3] = target: T1, NDM-1
Method: In addition, intact mass spectrometry was performed on the samples prepared for SDS-PAGE.

[4] = target: T2, NDM-1 in E. coli NDM-1 (Klebsiella pneumoniae, UniProt C7C422); settings: E. coli NDM-1, 450 nm, 60 J cm^-2
T2 sequence (C7C422 29-270 limits assumed): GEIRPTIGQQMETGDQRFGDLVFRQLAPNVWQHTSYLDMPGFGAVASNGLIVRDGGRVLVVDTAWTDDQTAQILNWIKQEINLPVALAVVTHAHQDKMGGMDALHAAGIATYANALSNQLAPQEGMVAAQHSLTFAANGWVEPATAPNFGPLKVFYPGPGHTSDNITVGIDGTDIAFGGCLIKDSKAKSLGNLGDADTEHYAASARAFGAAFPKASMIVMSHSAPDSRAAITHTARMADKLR
Method: (§24) shaking at 180 rpm for 18 hours. The overnight suspensions were subcultured (1:100) in fresh LB and incubated to yield an OD600 of 0.55-0.60. The were harvested and pelleted at 3500  g for 15 minutes at 4 °C. The pellets were washed with PBS and pelleted again under the same
(§25) conditions. The bacteria were then stored as pellets at 4 C until required for the assay and to
(§26) be used within 5 hours. To prepare the bacteria fo r the assay, a pellet was resuspended in an
(§27) adjusted volume of fresh PBS to achieve an OD600 ≈ 5.0 and then kept at 4 C for 1 hr before
(§28) being used. The bacteria were then diluted to OD600 ≈ 2.0 in fresh PBS and used immediately.
(§29) inhibitor control, and one row of Bacteria Buffer B (50 µL) which served as a no-bacteria
(§30) control (providing five rows in total). Bacteria stock (OD600 ≈ 2.0, 40 µL, final concentration
(§31) of bacteria in well = OD600 ≈ 0.8) was added to each well of the first four rows, the plate was
(§32) sealed, and the samples then pre-incubated for 60 min under either ‘dark’ or ‘light’ conditions
(§33) Under ‘dark’ conditions, the plate was left sealed in a
(§34) substrate in well = 100 µM) was conducted manually and then the plate immediately resealed
(§35) substrate had been completely consumed. Method conditions are as follows: cycle time = 100

[5] = system: E. coli empty; settings: dark and light samples equivalent
[6] = system: E. coli NDM-1
Method: based screening experiments were performed in biological triplicate, each replicate starting
from a new single colony inoculation. Statistical significance was determined using two-way
ANOVA followed by Sidak’s multiple comparison test, with a single pooled variance.
Concentration (MIC) assay
20% glycerol stocks of E. coli MG1655 pSU18 NDM-1 (E. coli NDM-1) and E. coli MG1655
pSU18 empty (E. coli empty) stored at -80 °C were used to streak nutrient agar plates. After
The MHBII culture growing both E. coli strains contained chloramphenicol
as an antibiotic resistance marker (2 µg/mL, equivalent to ¼ MICE. coli for chloramphenicol =
8 µg/mL). The resulting suspensions were each diluted 100 x (15 µL in 1.5 mL) in MHBII with
chloramphenicol (2 µg/mL), and the resultant suspensions were incubated to OD600 = 0.6-1.2
To generate the two-dimensional drug interaction matrix, four 96-well source plates were
prepared. In Source Plates A1-3, the three analytes were subjected to a two-fold serial dilution
across the rows (A to G), maintaining constant concentrations within each row and achieving
a vertical concentration gradient. In parallel, Source Plate B was prepared by diluting
meropenem in a two-fold series across the Columns (9 to 2), generating a horizontal
concentration gradient across the plate. Equal volumes (1 µL) from one of the source plates A
and source plate B were transferred into a 96-well assay plate to establish the checkerboard
layout with a 50X dilution into MHBII (50 μL total volume).
The prepared bacterial cells were diluted to OD600 = 0.01. Each prepared checkerboard plate
was then inoculated with 50 μL per well of bacterial culture in MHBII with ½ MIC of
chloramphenicol (100 μL total volume per well , final OD600 = 0.005). Control wells were
included to account for drug-free growth, sterility, and single-agent gradient exposures. Dark
For the light condition, the
OD600 was measured on a BMG Labtech CLARIOstar plate reader. The MIC is the first value
at which no growth is seen. All E. coli NDM-1 data were averaged from 3 biological replicates,

[7] = target: HDAC1 (Homo sapiens, UniProt Q13547); test: HDAC1 deacetylation assay (H3K9Ac, mass spectrometry); settings: 100 µM compound, 3 hours, 37°C
Chain of HDAC1 (Q13547 whole entry, species assumed): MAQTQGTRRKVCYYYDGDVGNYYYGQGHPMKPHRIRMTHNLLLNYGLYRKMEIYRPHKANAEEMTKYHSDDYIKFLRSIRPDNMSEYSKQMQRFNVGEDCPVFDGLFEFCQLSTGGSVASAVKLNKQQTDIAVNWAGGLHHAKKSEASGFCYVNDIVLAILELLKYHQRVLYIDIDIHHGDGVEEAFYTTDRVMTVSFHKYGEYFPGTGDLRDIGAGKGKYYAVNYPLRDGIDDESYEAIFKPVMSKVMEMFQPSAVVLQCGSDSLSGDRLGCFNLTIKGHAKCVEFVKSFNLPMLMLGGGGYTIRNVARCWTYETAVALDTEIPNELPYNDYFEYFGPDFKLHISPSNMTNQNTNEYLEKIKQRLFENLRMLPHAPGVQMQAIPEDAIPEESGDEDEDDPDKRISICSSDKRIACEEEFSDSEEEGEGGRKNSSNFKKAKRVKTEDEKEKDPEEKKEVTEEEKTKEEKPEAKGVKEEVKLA
Method: 1.7.1 HDAC1 Assay conditions:
The results of the assay were analysed using HRMS.
HDAC1 was included (-HDAC1).

[8] = system: RAW264.7; settings: RAW
[9] = system: E. coli empty
Method: (§1) In parallel, a control set was incubated without compounds for 50 min, followed by incubation with 75 μM meropenem trihydrate for 10 min. Cells were then pelleted, washed, resuspended in water, lysed, and clarified before LC-MS analysis.
(§2) 1.12 LC-MS accumulation assay
(§3) 1.12.1 Bacterial Strains and Growth Conditions:
(§4) Accumulation assay was performed two E. coli K-12 MG1655 strains transfected with pSU18 vector containing NDM-1 expression or an empty vector control. Cell growth was performed in Luria-Bertani (LB) broth (NaCl 10g/L, K2HPO4 6.3 g/L, KH2PO4 1.8 g/L, sodium citrate […]
(§5) 1.12.2 Preparation of Accumulation Assay Samples for LC-MS Analysis:
(§6) Assay was adapted from the work of Geddes et al. and Widya et al.9–11 E. coli MG1655 pSU18 NDM-1 and pSU18 Empty were grown from single colonies at 37 °C with aeration, while shaking at 180 rpm for 18 hours. The overnight suspensions were subcultured (1:100) in fresh LB and incubated to yield an OD600 of 0.55-0.60. The were harvested and pelleted at 3500 × g for 15 minutes at 4 °C. The pellets were washed with Meuller -Hinton II (MHII) broth and pelleted again under the same conditions. The pellets were resuspended in a n adjusted volume of fresh MHII to achieve an OD 600 ≈ 10.0. Shielded from ambient light, cells were incubated with 320 μM of metal complex for 1 hour while shaking at 180 rpm. Separately, another set of cells was incubated under identical conditions without any added metal complex. Cells […]
(§7) incubated with metal complex were maintained incubating under the same conditions for an additional 10 minutes, while the second set of cells was incubated with 75 μM of meropenem trihydrate for 10 minutes. After treatment, 10 μL of each cell suspension was taken and dilution 1:10 PBSA for OD600 viability analysis. A 150 μL aliquot of each cell suspension was layered onto 150 μL of cold silicone oil mixture (1:9, v/v AR20:High temperature silicone oil) and centrifuged at 3500 × g for 1 hour at 4 °C. The aqu eous and oil supernatant were carefully aspirated to isolate the cell pellets, which were resuspended in 50 μL of water and transferred to a fresh microplate. For lysis, a 1:1 (v/v) mixture of acetonitrile and methanol was added to each sample, and the sam ples were freeze thawed at -80 °C for approximately 18 hours.
(§8) Thawed samples were clarified by two rounds of centrifugation at 3500 × g for 1 hour at 4 °C, […]
(§9) External calibration curves were prepared by mixing compound at increasing concentration with extracted cell lysate (prepared in parallel to analyte containing samples) in concentrations […]
(§10) nM were also prepared to assess quantitative accuracy. Samples were submitted to LCMS analysis as biological triplicate using a single calibration curve. […]
(§11) was spiked into each calibration and analyte sampl e as an internal standard.

[10] = system: E. coli NDM-1; remark: listed apart in the source
Method: as §1, §2, §3, §4, §5, §6, §7, §8, §9, §10, §11

[11] = system: seven mammalian cell lines; settings: panel of seven mammalian cell lines including HepG2
[12] = target: T1, NDM-1; settings: 450 nm, 20 J cm^-2
[13] = target: T2, NDM-1 in E. coli NDM-1; test: cell-based; settings: E. coli NDM-1, nitrocefin
Method: as §24, §25, §26, §27, §28, §29, §30, §31, §32, §33, §34, §35

[14] = target: T1, NDM-1; test: biochemical; settings: recombinant NDM-1, nitrocefin
[15] = system: HaCaT
[16] = system: HCT116
[17] = Chromatographic LogD measurement; settings: reversed-phase HPLC, Eclipse Plus C18 column, pH 7.4
Method: ChromLogD measurements were adapted from a previously reported procedure.3 The reversed
phase HPLC measurements were measured using an Agilent 1100 Series, equipped with an
Eclipse Plus C18 column 4.6 x 50 mm, using a gradient of 50 mM ammonium acetate/CH3CN
0 – 100% over 10 min. The mobile phase was adjusted to pH = 7.4 using concentrated sodium
The retention times (log k’) of seven commercially available compounds which cover the log
D range from -0.02 to 3.18 (theophylline, 5-phenyl-1H-tetrazole, benzimidazole, colchicine,
acetophenone, indole, propiophenone, butyrophenone, and benzophenone) were calculated
using the below equation, where tR is the retention time of the compound and t0 is the column
dead time, measured by injecting uracil (0.853 min).
The average retention times (tR) of two consecutive injections of sample were used to calculate
the log k’ values, which were then used to create the standard curve (Figure S1).

[18] = system: HeLa
[19] = system: hTERT RPE-1
[20] = target: T1, NDM-1; test: biochemical
Method: as §12, §13, §14, §15, §16, §17, §18, §19, §20, §21, §22, §23

[21] = system: HepG2
[22] = system: HEK293T
[23] = compound 5 μM, light 450 nm, 60 J cm^-2
[24] = compound 10 μM, light 450 nm, 60 J cm^-2
[25] = compound 20 μM, light 450 nm, 60 J cm^-2
[26] = compound 40 μM, light 450 nm, 60 J cm^-2
[27] = compound 80 μM, light 450 nm, 60 J cm^-2
[28] = compound 160 μM, light 450 nm, 60 J cm^-2
[29] = read-out: Change in melting temperature (ΔT) of NDM-1

[Ru(2,2'-bipyridine)2(1-(4-(3-aminophenyl)pyridine-2,6-dicarboxylic acid)-imidazo[4,5,f][1,10]phenanthroline)](PF6)2 [Ru1]
Degradation of NDM-1 vs BSA (band intensity) ([1]; dark): Both proteins were unaffected | Degradation of NDM-1 vs BSA (band intensity) ([1]; light 450 nm, 20 J cm^-2): only NDM-1 was selectively modified and degraded; also recorded: Selective degradation of NDM-1 over BSA | K d,app from DSF (ΔT vs concentration) ([2]; apparent Kd): 7.4 µM | Change in melting temperature (ΔT) of NDM-1 ([2]; compound 4 μM): –3.9 °C | Change in melting temperature (ΔT) of NDM-1 ([2]; compound 16 μM): –6.8 °C | Change in melting temperature (ΔT) of NDM-1 ([2]; compound 63 μM): –13 °C | Effect on melting temperature of NDM-1 [2]: destabilize the protein in a dose-dependent manner | Modification of NDM-1 (intact mass) ([3]; 100 equiv, without irradiation): no change | Modification of NDM-1 (intact mass) ([3]; one equivalent, light 450 nm, 20 J cm^-2): considerable modification to the protein | Fold improvement in potency, light vs dark [4]: 30 fold | MIC [5]: >160 µM | MIC ([6]; E. coli NDM-1, dark and light samples equivalent): >160 µM | Fold change in Meropenem MIC ([6]; compound 5 μM, dark): 0 fold | Fold change in Meropenem MIC [6, 23]: 0.66 fold | Fold change in Meropenem MIC ([6]; compound 10 μM, dark): 0 fold | Fold change in Meropenem MIC [6, 24]: 0.66 fold | Fold change in Meropenem MIC ([6]; compound 20 μM, dark): 0.66 fold | Fold change in Meropenem MIC [6, 25]: 2.0 fold | Fold change in Meropenem MIC ([6]; compound 40 μM, dark): 0.66 fold | Fold change in Meropenem MIC [6, 26]: 5.3 fold | Fold change in Meropenem MIC ([6]; compound 80 μM, dark): 2.6 fold | Fold change in Meropenem MIC [6, 27]: 19 fold | Fold change in Meropenem MIC ([6]; compound 160 μM, dark): 9 fold and 9.3 fold | Fold change in Meropenem MIC [6, 28]: 53 fold | Inhibition of HDAC1 [7]: do not inhibit; also recorded: no off-target inhibition

Cl.Cl.Nc1cccc(-c2cc(C(=O)O)nc(C(=O)O)c2)c1 [N1, 4-(3-amino-phenyl) dipicolinic acid]
Effect on melting temperature of NDM-1 [2]: destabilize the protein in a dose-dependent manner | LD50 ([8]; 24 h): > 50 µM | LD50 ([8]; 48 h): > 50 µM | Accumulation ([9]; 320 μM, 1 h): 609 nM/OD600 | Accumulation ([10]; 320 μM, 1 h): 731 nM/OD600 | Cytotoxicity (no cytotoxicity up to) [11]: > 50 µM | Fold improvement in NDM-1 inhibition, light vs dark [12]: no enhancement of potency | IC50 ([13]; IC50(dark), dark): 13.2 µM and 13 µM | IC50 ([13]; IC50(light), light 450 nm, 60 J cm^-2): 11.1 µM | IC50 ([14]; IC50(dark), dark): 3.2 ± 0.08 µM | IC50 ([14]; IC50(light), light 450 nm, 20 J cm^-2): 3.1 µM | Fold improvement in potency, light vs dark [4]: no change in potency | LD50 ([15]; 24 h): > 50 µM | LD50 ([15]; 48 h): > 50 µM | Fold change in Meropenem MIC ([6]; compound 5 μM, dark): 0 fold | Fold change in Meropenem MIC [6, 23]: 0.66 fold | Fold change in Meropenem MIC ([6]; compound 10 μM, dark): 0 fold | Fold change in Meropenem MIC [6, 24]: 0.66 fold | Fold change in Meropenem MIC ([6]; compound 20 μM, dark): 0 fold | Fold change in Meropenem MIC [6, 25]: 1.3 fold | Fold change in Meropenem MIC ([6]; compound 40 μM, dark): 0.66 fold | Fold change in Meropenem MIC [6, 26]: 2.0 fold | Fold change in Meropenem MIC ([6]; compound 80 μM, dark): 2.6 fold | Fold change in Meropenem MIC [6, 27]: 6.6 fold | Fold change in Meropenem MIC ([6]; compound 160 μM, dark): 35 fold | Fold change in Meropenem MIC [6, 28]: 43 fold | LD50 ([16]; HCT116, 24 h): > 50 µM | LD50 ([16]; HCT116, 48 h): > 50 µM | chromatographic logD [17]: -1.32 | LD50 ([18]; 24 h): > 50 µM | LD50 ([18]; 48 h): > 50 µM | LD50 ([19]; RPE1, 24 h): > 50 µM | LD50 ([19]; RPE1, 48 h): > 50 µM | Kd [20]: 35 µM | ΔTm at 4 µM [20, 29]: -0.6 °C | ΔTm at 16 µM [20, 29]: -3.4 °C | ΔTm at 63 µM [20, 29]: -8.8 °C | LD50 ([21]; HepG2, 24 h): > 50 µM | LD50 ([21]; HepG2, 48 h): > 50 µM | LD50 ([22]; 24 h): > 50 µM | LD50 ([22]; 48 h): > 50 µM | Inhibition of HDAC1 [7]: do not inhibit

C[C@@H](O)[C@H]1C(=O)N2C(C(=O)O)=C(S[C@@H]3CN[C@H](C(=O)N(C)C)C3)[C@H](C)[C@H]12 [Meropenem, meropenem]
Accumulation ([9]; 75 μM, 10 min): 150 nM/OD600 | Accumulation ([9]; 75 μM, 10 min, listed as meropenem trihydrate): 0 nM/OD600 | Accumulation ([10]; 75 μM, 10 min): not detectable
